Patent publication US11773071B2, “Benzothiazepine compounds and their use as bile acid modulators” (Albireo AB, priority 2019, dated 2023)

Experiments:
Human IBAT = biological target: T1, Human IBAT (Homo sapiens, UniProt Q12908); assay: IBAT (h/m) assay, human IBAT-overexpressing cells, 3H-taurocholic acid uptake; format: cell-based; conditions: 0.25 μM 3H-taurocholic acid and 5 μM cold taurocholic acid, 20 minutes, read-out: hIBAT IC50
T1 construct: expressed in transfected cells; Puromycin-selected
T1 sequence (Q12908 1-348): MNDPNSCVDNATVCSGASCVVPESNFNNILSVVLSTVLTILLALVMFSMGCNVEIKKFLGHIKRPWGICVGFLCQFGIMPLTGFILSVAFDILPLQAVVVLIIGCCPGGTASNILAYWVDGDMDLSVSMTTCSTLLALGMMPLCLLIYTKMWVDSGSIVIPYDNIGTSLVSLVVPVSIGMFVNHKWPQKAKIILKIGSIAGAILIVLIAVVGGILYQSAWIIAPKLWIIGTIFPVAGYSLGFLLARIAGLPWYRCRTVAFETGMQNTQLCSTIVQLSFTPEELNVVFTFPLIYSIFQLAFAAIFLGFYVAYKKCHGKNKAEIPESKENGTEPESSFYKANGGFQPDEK
Procedure: IBAT (h/m) Assay Protocol
10,000 cells (Human or Mouse IBAT-overexpressing cells) were seeded in 96-wells plate (Corning CLS3809) in 200 μL MEM-alpha medium (Gibco 12571-063) supplemented with 10% FBS (Gibco 10438026) containing Puromycin (Gibco A1113803) (10 μg/mL) and incubated at 37° C. in 5% CO2 for 48 hours. After incubation, media was decanted from the wells and cells were washed two times with 300 μL of basal MEM-alpha medium (FBS-free). After decanting basal MEM-alpha medium each time, plates were tapped against paper towel to ensure maximum removal of residual media. Test inhibitor dilutions (highest test concentration being 10 μM, 3-fold serial dilution, 10 points) prepared in DMSO (Sigma D2650) were added in incubation mix (maintaining 0.2% final DMSO concentration) containing 0.25 μM 3H-taurocholic acid (ARC ART-1368) and 5 μM of cold taurocholic acid (Sigma T4009). 50 μL of incubation mix containing test inhibitors was then added to the wells (in duplicate) and the plates were incubated for 20 minutes in a CO2 incubator at 37° C. After incubation, the reaction was stopped by keeping the plates on ice water mix for 2-3 minutes and then the incubation mix was aspirated completely from the wells. The wells were washed two times with 250 μL of chilled unlabelled 1 mM taurocholic acid dissolved in HEPES (Gibco 15630080)-buffered (10 mM) HBSS (Gibco 14175079) (pH 7.4). The plates were tapped against a paper towel after every wash to ensure maximum removal of blocking buffer.
100 μL of MicroScint-20 (PerkinElmer 6013621) was added to the wells and kept overnight at room temperature before reading the plates in TopCount NXT™ Microplate Scintillation and Luminescence Counter from PerkinElmer under 3H Test protocol (set at 120 seconds reading time per well).
(§1) Preparation of Test Compound Dilutions
(§2) All test compounds were provided in powder form at room temperature. 10 mM DMSO stocks of the test compounds were prepared, aliquoted and stored at −20° C. From the 10 mM DMSO stock of the compounds, a 3-fold serial dilution in DMSO was prepared to get a total of 10 dilutions of the test compounds. 0.5 μL of this dilution in DMSO was added to 250 μL of FBS-free basal media containing 3H-taurocholic acid and cold taurocholic acid to prepare the incubation mixture.

Human LBAT = biological target: T2, Human LBAT (Homo sapiens, UniProt Q14973); assay: LBAT (h/m) assay, human LBAT-overexpressing cells, 3H-taurocholic acid uptake; format: cell-based; conditions: 0.3 μM 3H-taurocholic acid and 7.5 μM cold taurocholic acid, 20 minutes, read-out: hLBAT IC50
T2 construct: expressed in transfected cells; Geneticin-selected
T2 sequence (Q14973 1-349): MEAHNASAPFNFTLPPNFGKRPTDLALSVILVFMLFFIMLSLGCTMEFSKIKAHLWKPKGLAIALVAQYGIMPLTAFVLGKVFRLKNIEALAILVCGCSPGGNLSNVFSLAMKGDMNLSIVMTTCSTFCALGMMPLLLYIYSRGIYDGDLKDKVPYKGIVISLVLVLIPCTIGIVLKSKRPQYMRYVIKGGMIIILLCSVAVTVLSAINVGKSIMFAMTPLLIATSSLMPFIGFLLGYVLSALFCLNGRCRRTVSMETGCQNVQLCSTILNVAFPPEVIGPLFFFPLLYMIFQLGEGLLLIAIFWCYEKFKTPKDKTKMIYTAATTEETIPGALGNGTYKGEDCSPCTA
Procedure: LBAT (h/m) Assay Protocol
20,000 cells (Human or Mouse LBAT-overexpressing cells) were seeded in 96-wells plate (Corning CLS3809) in 100 μL MEM-alpha medium (Gibco 12571-063) supplemented with 10% FBS (Gibco 10438026) containing Geneticin (Gibco 10131-027) (1 mg/mL) and incubated at 37° C. in 5% CO2 for 24 hours. After incubation, media was decanted from the wells and cells were washed two times with 300 μL of basal MEM-alpha medium (FBS-free). After decanting basal MEM-alpha medium each time, plates were tapped against paper towel to ensure maximum removal of residual media.
For human LBAT, incubation mix was prepared by adding test inhibitor dilutions (3-fold serial dilution in DMSO (Sigma D2650), 10 points) in MEM-alpha (without FBS) containing 0.3 μM 3H-taurocholic acid (ARC ART-1368) and 7.5 μM cold taurocholic acid (Sigma T4009) (maintaining 0.2% final DMSO concentration). For mouse LBAT, incubation mix was prepared by adding test inhibitor dilutions (3-fold serial dilution in DMSO, 10 points) in MEM-alpha (without FBS) containing 0.3 μM 3H-taurocholic acid and 25 μM cold taurocholic acid maintaining 0.2% final DMSO concentration). 50 μL of incubation mix containing test inhibitors was then added to the wells (in duplicate) and the plates were incubated for 20 minutes in a CO2 incubator at 37° C. After incubation, the reaction was stopped by keeping the plates on ice water mix for 2-3 minutes and then the incubation mix was aspirated completely from the wells. The wells were washed two times with 250 μL of chilled unlabelled 1 mM taurocholic acid dissolved in HEPES (Gibco 15630080)-buffered (10 mM) HBSS (Gibco 14175079) (pH 7.4). The plates were tapped against a paper towel after every wash to ensure maximum removal of blocking buffer. 100 μL of MicroScint-20 (PerkinElmer 6013621) was added to the wells and kept overnight at room temperature before reading the plates in TopCount NXT™ Microplate Scintillation and Luminescence Counter from PerkinElmer under 3H Test protocol (set at 120 seconds reading time per well, with normal plate orientation).
as §1, §2

Row | Compound | IC50 (Human IBAT) | IC50 (Human LBAT)
1 | CCCCC1(CC)CN(c2ccccc2)c2cc(SC)c(OCC(N)C(=O)O)cc2S(=O)(=O)C1 (stereo not shown) [Example 28, O-(3-butyl-3-ethyl-7-(methylthio)-1,1-dioxido-5-phenyl-2,3,4,5-tetrahydro-1,5-benzothiazepin-8-yl)serine] | 45 nM | 
2 | CCCCC1(CC)CN(c2ccccc2)c2cc(OC)c(OCCC(=O)O)cc2S(=O)(=O)C1 (single isomer, unassigned) [44, enantiomer 2] | 392 nM | > 23000 nM
3 | CCCC1(CC)CN(c2ccccc2)c2cc(SC)c(OCCC(=O)O)cc2S(=O)(=O)C1 (stereo not shown) [Example 27, 3-((3-ethyl-7-(methylthio)-1,1-dioxido-5-phenyl-3-propyl-2,3,4,5-tetrahydro-1,5-benzothiazepin-8-yl)oxy)propanoic acid] | 62 nM | 
4 | CCCCC1(CC)CN(c2ccc(F)cc2)c2cc(SC)c(OCC(O)C(=O)O)cc2S(=O)(=O)C1 (single isomer, unassigned) [42, diastereomer 1] | 19 nM | 1290 nM
5 | CCCCC1(CC)CN(c2ccc(F)cc2)c2cc(SC)c(OCC(O)C(=O)O)cc2S(=O)(=O)C1 (single isomer, unassigned) [42, diastereomer 2] | 36 nM | 2310 nM
6 | CCCCC1(CC)CN(c2ccccc2)c2cc(SC)c(OCC(C)(F)C(=O)O)cc2S(=O)(=O)C1 (single isomer, unassigned) [35, diastereomer 2] | 13 nM | 138 nM
7 | CCCCC1(CCCC)CN(c2ccccc2)c2cc(Cl)c(OCCC(=O)O)cc2S(=O)(=O)C1 [Example 8, 3-((3,3-Dibutyl-7-chloro-1,1-dioxido-5-phenyl-2,3,4,5-tetrahydro-1,5-benzothiazepin-8-yl)oxy)propanoic acid] | 74 nM | 376 nM
8 | CCCCC1(CC)CN(c2ccccc2)c2cc(SC)c(OCC(C)(O)C(=O)O)cc2S(=O)(=O)C1 (single isomer, unassigned) [48, diastereomer 1] | 56 nM | 1190 nM
9 | CCCCC1(C)CN(c2ccccc2)c2cc(SC)c(OCC(C)(O)C(=O)O)cc2S(=O)(=O)C1 (single isomer, unassigned) [33, diastereomer 2] | 45 nM | 1410 nM
10 | CCCCC1(CCCC)CN(c2ccc(F)c(F)c2)c2cc(SC)c(OCCC(=O)O)cc2S(=O)(=O)C1 [Example 25, 3-((3,3-dibutyl-5-(3,4-difluorophenyl)-7-(methylthio)-1,1-dioxido-2,3,4,5-tetrahydro-1,5-benzothiazepin-8-yl)oxy)propanoic acid] | 18 nM | 922 nM
11 | CCCCC1(CC)CN(c2ccccc2)c2cc(SC)c(OCC(N)C(=O)O)cc2S(=O)(=O)C1 (single isomer, unassigned) [36, diastereomer 1] | 76 nM | 
12 | CCCCC1(CC)CN(c2ccccc2)c2cc(N(C)C)c(OCCC(=O)O)cc2S(=O)(=O)C1 (single isomer, unassigned) [Example 18, 3-((3-butyl-7-(dimethylamino)-3-ethyl-1,1-dioxido-5-phenyl-2,3,4,5-tetrahydro-1,5-benzothiazepin-8-yl)oxy)propanoic acid] | 52 nM | 
13 | CCCCC1(C)CN(c2ccccc2)c2cc(SC)c(OCC(C)(O)C(=O)O)cc2S(=O)(=O)C1 (single isomer, unassigned) [33, diastereomer 4] |  | 575 nM
14 | CCCCC1(C)CN(c2ccc(F)cc2)c2cc(SC)c(OCCC(=O)O)cc2S(=O)(=O)C1 (racemic) [Example 49, 3-((3-Butyl-5-(4-fluorophenyl)-3-methyl-7-(methylthio)-1,1-dioxido-2,3,4,5-tetrahydro-1,5-benzothiazepin-8-yl)oxy)propanoic acid] | 10 nM | 

More lines, now with the values ahead:

Row | IC50 (Human IBAT) | IC50 (Human LBAT) | Compound
15 | 10 nM | 389 nM | CCCCC1(CC)CN(c2ccccc2)c2cc(SC)c(OCC(O)C(=O)O)cc2S(=O)(=O)C1 (single isomer, unassigned) [40, diastereomer 4]
16 | 10 nM | 359 nM | CCCCC1(C)CN(c2ccccc2)c2cc(SC)c(OCC(O)C(=O)O)cc2S(=O)(=O)C1 (stereo not shown) [Example 31, 3-((3-butyl-3-methyl-7-(methylthio)-1,1-dioxido-5-phenyl-2,3,4,5-tetrahydro-1,5-benzothiazepin-8-yl)oxy)-2-hydroxypropanoic acid]
17 | 10 nM | 543 nM | CCCCC1(C)CN(c2ccccc2)c2cc(SC)c(OCCC(=O)O)cc2S(=O)(=O)C1 (racemic) [Example 22, 3-((3-butyl-3-methyl-7-(methylthio)-1,1-dioxido-5-phenyl-2,3,4,5-tetrahydro-1,5-benzothiazepin-8-yl)oxy)propanoic acid]
18 | 8 nM | 2260 nM | CCCCC1(C)CN(c2ccccc2)c2cc(SC)c(OC[C@H](O)C(=O)O)cc2S(=O)(=O)C1 (single isomer, unassigned) [Example 32, 3-((3-butyl-3-methyl-7-(methylthio)-1,1-dioxido-5-phenyl-2,3,4,5-tetrahydro-1,5-benzothiazepin-8-yl)oxy)-2-hydroxypropanoic acid]
19 | 3 nM | 297 nM | CCCCC1(CC)CN(c2ccc(F)cc2)c2cc(SC)c(OCCC(=O)O)cc2S(=O)(=O)C1 (racemic) [Example 37, 3-((3-butyl-3-ethyl-5-(4-fluorophenyl)-7-(methylthio)-1,1-dioxido-2,3,4,5-tetrahydro-1,5-benzothiazepin-8-yl)oxy)propanoic acid]
20 | 5 nM |  | CCCCC1(CC)CN(c2ccccc2)c2cc(SC)c(OCC(N)C(=O)O)cc2S(=O)(=O)C1 (single isomer, unassigned) [36, diastereomer 2]
21 | 5 nM |  | CCCCC1(C)CN(c2ccc(F)cc2)c2cc(SC)c(OCC(O)C(=O)O)cc2S(=O)(=O)C1 (stereo not shown) [Example 51, 3-((3-Butyl-5-(4-fluorophenyl)-3-methyl-7-(methylthio)-1,1-dioxido-2,3,4,5-tetrahydro-1,5-benzothiazepin-8-yl)oxy)-2-hydroxypropanoic acid]
